Laboratory results published in patent US20050060764A1, “Mouse model for bone metabolism” (priority 2003, published 2005).
Strand notation (5' to 3'): a small letter for the sugar, then the base; units joined by * are phosphorothioate-linked, units joined directly phosphodiester-linked; [ ] holds rarer units or linkages, { } end groups; capitals alone tell only the bases. e = 2'-O-(2-methoxyethyl) (MOE); [5mC] = 5-methylcytosine; d = 2'-deoxy (DNA)

Tests used:
[1] = Serum calcium after RANK antisense oligonucleotide treatment and PTH infusion: time course (Table 13); format: in vivo, mouse; conditions: for Serum calcium concentration: then 24 h PTH
Method: (§1) In accordance with the present invention, ISIS 181071 was administered to mice for different time periods to evaluate its ability to inhibit RANK expression and PTH-induced serum calcium concentration increase as a function of oligonucleotide treatment time.
(§2) Female Swiss-Webster mice (5-8 wks old) were fed a low-calcium diet and received daily subcutaneous injections of 30 mg/kg of ISIS 181071 (SEQ ID NO: 356) for 2, 3, 5, 7, 10, 14, or 21 days. At the end of the oligonucleotide treatment period, mice were infused with PTH by subcutaneously implanted mini-pumps at a dose of 1 ug/100 g/6 hr. A group of control mice were dosed with either saline, PTH alone (1 ug/100 g/6 hr) or calcitonin (400 ug) plus PTH (1 ug/100 g/6 hr). Following 24 hours of PTH infusion (total PTH delivery of 4ug/100 g), the mice were sacrificed and measurements were made of serum calcium with the Sigma Diagnostics Calcium Kit (Sigma-Aldrich) and RANK mRNA expression in the proximal tibia (as described in other examples herein). Percent RANK mRNA inhibition is normalized to PTH alone treatment.

RANK mRNA = RANK mRNA expression in mouse proximal tibia after antisense oligonucleotide treatment and PTH infusion: time course (Table 13); format: in vivo; conditions: for RANK mRNA % inhibition (normalized to PTH) Proximal Tibia: then 24 h PTH
Method: as §1, §2

[2] = Serum calcium concentration after PTH infusion in mice: specificity and dose response of RANK antisense oligonucleotide (Table 15); format: in vivo, mouse; conditions: control mice, no oligonucleotide; PTH 1 ug/100 g/6 hr 24 h, calcitonin 400 ng
Method: In accordance with the present invention, the specificity of RANK inhibition by a RANK antisense oligonucleotide was compared to that of an 8-base pair mismatch oligonucleotide.
ISIS 181080 ([…], SEQ ID NO: 357) is an antisense oligonucleotide targeted to mouse RANK. ISIS 208565 ([…], SEQ ID NO: 358) is an 8-base pair mismatch oligonucleotide. […] All cytidine residues are 5-methylcytidines.
Female Swiss-Webster mice (5-8 wks old) fed a low-calcium diet were treated for two weeks with either ISIS 181080 or ISIS 208565. The dose of oligonucleotide was either 40 mg/kg, 30 mg/kg, 20 mg/kg, or 10 mg/kg. After the 2-week treatment with oligonucleotides, the mice were infused with PTH by subcutaneously implanted mini-pumps at a dose of 4 ug/100 g over 24 hours. A group of control mice were dosed with either saline, PTH alone (1 ug/100 g/6 hr) or calcitonin (400 ng) plus PTH (1 ug/100 g/6 hr). After 24 hours of PTH infusion (total PTH delivery of 4 ug/100 g), the mice were sacrificed and measurements were made of serum calcium with the Sigma Diagnostics Calcium Kit (Sigma-Aldrich) and RANK mRNA expression in proximal tibia (as described in other examples herein). The results shown in Table 15 are the average from four mice per group. Percent inhibition of RANK mRNA is normalized to PTH treatment alone. […] The data also illustrate that these effects are occurring due to an antisense mechanism.

[3] = mice, 30 mg/kg daily s.c. for 2, 3, 5, 7, 10, 14, or 21 days, 24 hours PTH infusion

Row | Molecule | Serum calcium concentration ([1]; 30 mg/kg daily sc for 2 days) [mg/dL] | Serum calcium concentration ([1]; 30 mg/kg daily sc for 3 days) [mg/dL] | Serum calcium concentration ([1]; 30 mg/kg daily sc for 5 days) [mg/dL] | Serum calcium concentration ([1]; 30 mg/kg daily sc for 7 days) [mg/dL] | Serum calcium concentration ([1]; 30 mg/kg daily sc for 10 days) [mg/dL] | Serum calcium concentration ([1]; 30 mg/kg daily sc for 14 days) [mg/dL] | Serum calcium concentration ([1]; 30 mg/kg daily sc for 21 days) [mg/dL] | PTH-induced increase in serum calcium concentration [1, 3] | RANK mRNA % inhibition (normalized to PTH) Proximal Tibia (RANK mRNA; 30 mg/kg daily sc for 2 days) [%] | RANK mRNA % inhibition (normalized to PTH) Proximal Tibia (RANK mRNA; 30 mg/kg daily sc for 3 days) [%] | RANK mRNA % inhibition (normalized to PTH) Proximal Tibia (RANK mRNA; 30 mg/kg daily sc for 5 days) [%] | RANK mRNA % inhibition (normalized to PTH) Proximal Tibia (RANK mRNA; 30 mg/kg daily sc for 7 days) [%] | RANK mRNA % inhibition (normalized to PTH) Proximal Tibia (RANK mRNA; 30 mg/kg daily sc for 10 days) [%] | RANK mRNA % inhibition (normalized to PTH) Proximal Tibia (RANK mRNA; 30 mg/kg daily sc for 14 days) [%] | RANK mRNA % inhibition (normalized to PTH) Proximal Tibia (RANK mRNA; 30 mg/kg daily sc for 21 days) [%] | RANK mRNA expression in the proximal tibia (RANK mRNA; [3]) | serum calcium [2] [mg/dL]
1 | TCCTCGAGAGGTCTCCTTGC (antisense eT*e[5mC]*e[5mC]*eT*e[5mC]*dG*dA*dG*dA*dG*dG*dT*d[5mC]*dT*d[5mC]*e[5mC]*eT*eT*eG*e[5mC]) [ISIS 181071, 2′-MOE gapmer antisense oligonucleotide targeted to mouse RANK] | 20 | 17 | 16 | 16 | 18 | 15 | 15 | lessens the PTH-induced increase in serum calcium concentration | 34 | 14 | 32 | 61 | 37 | 53 | 52 | inhibition of RANK mRNA in the proximal tibia | –
2 | parathyroid hormone (peptide, UniProt P01270 32-115, looked up, parathyroid hormone infused to induce bone resorption in the mouse model) Parathyroid hormone: SVSEIQLMHNLGKHLNSMERVEWLRKKLQDVHNFVALGAPLAPRDAGSQRPRKKEDNVLVESHEKSLGEADKADVNVLTKAKSQ | – | – | – | – | – | – | – | – | – | – | – | – | – | – | – | – | 20
